# Assay results published in ChEMBL document CHEMBL1201862, “PubChem BioAssay data set” (2004).
# “And” between values parts separate entries of the source, which are not always exact repeats. Equal entries are not always repeated.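 Exposure lasted 48 hours, with cells grown in 96-well plates and compounds tested at five concentrations. GI50 is the concentration that inhibits growth by half.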 The source made the active and inactive calls. No stated cut-off is given here; in the data, active = GI50 up to about 1.1 µM and inactive = higher. Residues, ends and D or L forms follow the SMILES beside them. *: point of attachment. X38 = O=C(c1ccc(-c2ccc(Cl)cc2Cl)o1)*
# Tests used:
# Test in all cases: NCI-60 cell line screen, 48 h
# K562 = test system: K562
# MDA-MB-231 = test system: MDA-MB-231
# BT-549 = test system: BT-549
# Hs-578T = test system: Hs-578T
# SK-MEL-28 = test system: SK-MEL-28
# KM12 = test system: KM12
# HCC 2998 = test system: HCC 2998
# UACC-257 = test system: UACC-257
# SF-268 = test system: SF-268
# HOP-62 = test system: HOP-62
# SF-539 = test system: SF-539
# U-251 = test system: U-251
# HT-29 = test system: HT-29
# OVCAR-4 = test system: OVCAR-4
# SN12C = test system: SN12C
# TK-10 = test system: TK-10
# EKVX = test system: EKVX
# SW-620 = test system: SW-620
# MDA-MB-435 = test system: MDA-MB-435
SMILES,GI50 (K562),GI50 (MDA-MB-231),GI50 (BT-549),GI50 (Hs-578T),GI50 (SK-MEL-28),GI50 (KM12),GI50 (HCC 2998),GI50 (UACC-257),GI50 (SF-268),GI50 (HOP-62),GI50 (SF-539),GI50 (U-251),GI50 (HT-29),GI50 (OVCAR-4),GI50 (SN12C),GI50 (TK-10),GI50 (EKVX),GI50 (SW-620),GI50 (MDA-MB-435)
ClCCCc1ccccc1C1=NCCc2ccccc21,13.7 µM (inactive),> 100 µM (inactive),21 µM (inactive),31.7 µM (inactive),> 100 µM (inactive),40.9 µM (inactive),40.3 µM (inactive),43.1 µM (inactive),49.7 µM (inactive),> 100 µM (inactive),> 100 µM (inactive),25.8 µM (inactive),28.5 µM (inactive),51.5 µM (inactive),48.4 µM (inactive),> 100 µM (inactive),80.9 µM (inactive),> 100 µM (inactive),37.5 µM (inactive)
CC(=O)OC(/C=C/c1ccccc1)P1(=O)N(CC(C)(C)C)[C@@H]2CCCC[C@H]2N1CC(C)(C)C (some centres not stated),5.02 µM (inactive) and 4.68 µM (inactive),9.68 µM (inactive) and 7.26 µM (inactive),11.5 µM (inactive) and 14.4 µM (inactive),6.92 µM (inactive) and 8.67 µM (inactive),17.7 µM (inactive) and 13.5 µM (inactive),6.3 µM (inactive) and 6.65 µM (inactive),5 µM (inactive) and 2.77 µM (inactive),4.07 µM (inactive) and 3.3 µM (inactive),10.9 µM (inactive) and 8.45 µM (inactive),16.2 µM (inactive) and 13.1 µM (inactive),8.11 µM (inactive) and 13.6 µM (inactive),8.81 µM (inactive) and 6.38 µM (inactive),4.25 µM (inactive) and 3.89 µM (inactive),5.35 µM (inactive) and 5.22 µM (inactive),10.4 µM (inactive) and 7.59 µM (inactive),,5.27 µM (inactive) and 5.68 µM (inactive),9.62 µM (inactive) and 5.27 µM (inactive),7.36 µM (inactive) and 10 µM (inactive)
CC(C)(O)c1cc2c(cc1C(C)(C)O)-c1ccccc1-2,> 100 µM (inactive),> 100 µM (inactive),> 100 µM (inactive),29.6 µM (inactive),> 100 µM (inactive),> 100 µM (inactive),> 100 µM (inactive),> 100 µM (inactive),43.8 µM (inactive),,> 100 µM (inactive),> 100 µM (inactive),,> 100 µM (inactive),> 100 µM (inactive),> 100 µM (inactive),59.7 µM (inactive),> 100 µM (inactive),> 100 µM (inactive)
O=[N+]([O-])c1cccc2nc3ccccc3c(NCCCn3ccnc3[N+](=O)[O-])c12,< 0.0001 µM (active),0.000168 µM (active),< 0.0001 µM (active),0.0169 µM (active),0.00189 µM (active),0.000114 µM (active),0.000156 µM (active),0.0039 µM (active),0.000819 µM (active),0.000785 µM (active),0.00137 µM (active),0.000213 µM (active),< 0.0001 µM (active),0.0104 µM (active),0.000282 µM (active),0.00367 µM (active),0.000298 µM (active),< 0.0001 µM (active),< 0.0001 µM (active)
COC(=O)C(CC(C)C)NC(=O)C(Cc1ccccc1)NC(=O)C1CCCN1C(=O)C(CO)NC(=O)c1ccc(-c2ccc(Cl)cc2Cl)o1 (configuration not stated) (X38-SPFL-OMe; configuration not given here),27.8 µM (inactive),15.5 µM (inactive),25.6 µM (inactive),35.5 µM (inactive),52.1 µM (inactive),34 µM (inactive),13.2 µM (inactive),20.2 µM (inactive),40.3 µM (inactive),,24.3 µM (inactive),21.4 µM (inactive),17.6 µM (inactive),31.2 µM (inactive),32.1 µM (inactive),24.8 µM (inactive),,30.7 µM (inactive),28.3 µM (inactive)
CCN(CC)/N=N/c1c(C(N)=O)n[nH]c1C,,> 100 µM (inactive),11.1 µM (inactive),45.9 µM (inactive),> 100 µM (inactive),50 µM (inactive),> 100 µM (inactive),> 100 µM (inactive),39.3 µM (inactive),31.2 µM (inactive),29.5 µM (inactive),59 µM (inactive),> 100 µM (inactive),> 100 µM (inactive),40.6 µM (inactive),> 100 µM (inactive),26.9 µM (inactive),71.3 µM (inactive),77.4 µM (inactive)
O=C1NC(=O)[C@@]2(CC[C@@H](O)C2)c2ccncc21 [SESBANINE],> 100 µM (inactive),> 100 µM (inactive),> 100 µM (inactive),> 100 µM (inactive),> 100 µM (inactive),> 100 µM (inactive),> 100 µM (inactive),> 100 µM (inactive),> 100 µM (inactive),,> 100 µM (inactive),> 100 µM (inactive),> 100 µM (inactive),> 100 µM (inactive),> 100 µM (inactive),> 100 µM (inactive),> 100 µM (inactive),> 100 µM (inactive),> 100 µM (inactive)
CCOC(=O)N(Cc1cccs1)c1cc(OC)c(OC)c(OC)c1,26.2 µM (inactive),75 µM (inactive),40.6 µM (inactive),86.5 µM (inactive),> 100 µM (inactive),47.5 µM (inactive),> 100 µM (inactive),> 100 µM (inactive),> 100 µM (inactive),> 100 µM (inactive),,> 100 µM (inactive),70.1 µM (inactive),32.1 µM (inactive),> 100 µM (inactive),> 100 µM (inactive),> 100 µM (inactive),> 100 µM (inactive),17.4 µM (inactive)
CC(=O)/C=C1\Nc2ccc([N+](=O)[O-])cc2N\C1=C/C(C)=O,50.8 µM (inactive),92.5 µM (inactive),31.9 µM (inactive),26.7 µM (inactive),51.1 µM (inactive),34.3 µM (inactive),,21.9 µM (inactive),47.8 µM (inactive),44.9 µM (inactive),46.6 µM (inactive),35.3 µM (inactive),54 µM (inactive),44.7 µM (inactive),28.7 µM (inactive),65.5 µM (inactive),42.4 µM (inactive),64.6 µM (inactive),82.4 µM (inactive)
C/C=C\C(CC(=O)O)CN1CCC2=C(C1)C(S(=O)(=O)C(F)(F)F)c1ccccc12 (configuration not stated),> 100 µM (inactive),> 100 µM (inactive),> 100 µM (inactive),> 100 µM (inactive),> 100 µM (inactive),> 100 µM (inactive),> 100 µM (inactive),> 100 µM (inactive),> 100 µM (inactive),> 100 µM (inactive),,> 100 µM (inactive),> 100 µM (inactive),> 100 µM (inactive),,,> 100 µM (inactive),> 100 µM (inactive),> 100 µM (inactive)
NCC1OC(n2cnc3c(=O)[nH]c(N)nc32)C(O)C1O (configuration not stated),1 µM (active),> 100 µM (inactive),> 100 µM (inactive),> 100 µM (inactive),> 100 µM (inactive),> 100 µM (inactive),,> 100 µM (inactive),> 100 µM (inactive),> 100 µM (inactive),> 100 µM (inactive),> 100 µM (inactive),> 100 µM (inactive),> 100 µM (inactive),> 100 µM (inactive),> 59.7 µM (inactive),> 100 µM (inactive),> 100 µM (inactive),> 100 µM (inactive)
CN(C)CCCc1c2ccccc2nc2ccc(Cl)cc12,19.1 µM (inactive),16.6 µM (inactive),18.6 µM (inactive),16.5 µM (inactive),18.3 µM (inactive),17.9 µM (inactive),,13.3 µM (inactive),14.6 µM (inactive),14.5 µM (inactive),16.6 µM (inactive),12.2 µM (inactive),13.2 µM (inactive),18.6 µM (inactive),10.3 µM (inactive),13.9 µM (inactive),17 µM (inactive),12.9 µM (inactive),13.3 µM (inactive)
COc1cc2oc3c(c(=O)c2c(O)c1/C=C/C(C)C)C(C=C(C)C)Oc1cc(O)ccc1-3 (configuration not stated),7.6 µM (inactive),18 µM (inactive),10.6 µM (inactive),19 µM (inactive),16.5 µM (inactive),17.2 µM (inactive),12.1 µM (inactive),18.2 µM (inactive),18.7 µM (inactive),,17.5 µM (inactive),16.7 µM (inactive),14 µM (inactive),16.6 µM (inactive),16.1 µM (inactive),16.4 µM (inactive),16.1 µM (inactive),16.1 µM (inactive),15.9 µM (inactive)
Cc1ccc(-n2cc(-c3ccc(Cl)cc3)c3c2N=CN2N=C(c4ccco4)NC32)cc1 (configuration not stated),7.41 µM (inactive),5 µM (inactive),26.2 µM (inactive),2.05 µM (inactive),71 µM (inactive),,> 100 µM (inactive),> 100 µM (inactive),15.3 µM (inactive),7.64 µM (inactive),15.2 µM (inactive),5.46 µM (inactive),> 100 µM (inactive),1.93 µM (inactive),3.62 µM (inactive),7.5 µM (inactive),17.7 µM (inactive),8.87 µM (inactive),30.8 µM (inactive)
N=C(c1cccs1)C1(N2CCCCC2)CCCCC1,16.4 µM (inactive),16.6 µM (inactive),24.5 µM (inactive),57.4 µM (inactive),,17.6 µM (inactive),14.1 µM (inactive),15.6 µM (inactive),21.1 µM (inactive),20.3 µM (inactive),,16.4 µM (inactive),17.3 µM (inactive),20.5 µM (inactive),33.8 µM (inactive),17.3 µM (inactive),20.9 µM (inactive),16.6 µM (inactive),18.2 µM (inactive)
